# According to article PMC7824787, “Design, Synthesis and In Vitro Investigation of Novel Basic Celastrol Carboxamides as Bio-Inspired Leishmanicidal Agents Endowed with Inhibitory Activity against Leishmania Hsp90” (Biomolecules, 2021):
# Molecular target: LbHsp90 (Leishmania braziliensis, UniProt A4HL70)
# Assay: LbHsp90 ATPase kinetics (NADH-coupled enzymatic cascade)
# Format: biochemical
# Settings: for LbHsp90 Inhibition (%): compound 50 μM, 3.5 μM LbHsp90, 1 mM ATP; for inhibition at 50 µM: read-out: LbHsp90 Inhibition (%), compound 50 μM, 3.5 μM LbHsp90, 1 mM ATP
# Description: The reaction was initiated by the addition of ATP (1 mM) and absorbance changes at 346 nm were monitored for 30 min at 30 °C.
# Native LbHsp90 kinetics was measured as described but in the absence of DMSO. Two control experiments were run as follows: • (1) Efficiency of the enzymatic cascade by the used compounds: HEPES buffer (20 mM, pH 7.5) containing KCl (100 mM), MgCl2 (1 mM), ADP (1 mM), NADH (0.18 mM), L-lactate dehydrogenase (4 U mL^−1), phosphoenolpyruvate (1 mM), pyruvate kinase (2.5 U mL^−1); • (2) Interference of the tested compound(s) with the enzymatic cascade: HEPES buffer (20 mM, pH 7.5) containing KCl (100 mM), MgCl2 (1 mM), ADP (1 mM), NADH (0.18 mM), L-lactate dehydrogenase (4 U mL^−1), phosphoenolpyruvate (1 mM), pyruvate kinase (2.5 U mL^−1) and 50 μM compound.
# Accordingly, an in vitro assay developed for the evaluation of non-competitive allosteric modulators, which exploits ATPase kinetics data, was used. Briefly, the decrease in absorbance deriving from the continuous oxidation of NADH to NAD^+ produced by a multi-enzymatic cascade triggered by LbHp90-catalyzed ATP hydrolysis is followed spectrophotometrically over the course of 15 min (for details see Appendix B). All the experiments were normalized using the native ATPase activity of LbHsp90 measured in the presence of DMSO, the co-solvent selected for compounds solubilization.
# Figure A1 Enzymatic cascade reactions to spectroscopically evaluate L. Hsp90 ATPase kinetics. The ADP produced by ATP hydrolysis during the chaperone cycle reacts with PEP (phosphoenolpyruvate) to form pyruvate in a reaction catalyzed by the enzyme pyruvate kinase (PK), whereby ATP is regenerated. Pyruvate then continues the cascade process and is reduced to lactic acid by action of lactate dehydrogenase (LDH), whereby NADH is oxidized to NAD^+.
# LbHsp90 inhibition (%) = (1 − k/knative) * 100 k = ΔAbs/min = extrapolated apparent kinetic constant (Abs/min)
# Chain of LbHsp90 (A4HL70 entry or part of it): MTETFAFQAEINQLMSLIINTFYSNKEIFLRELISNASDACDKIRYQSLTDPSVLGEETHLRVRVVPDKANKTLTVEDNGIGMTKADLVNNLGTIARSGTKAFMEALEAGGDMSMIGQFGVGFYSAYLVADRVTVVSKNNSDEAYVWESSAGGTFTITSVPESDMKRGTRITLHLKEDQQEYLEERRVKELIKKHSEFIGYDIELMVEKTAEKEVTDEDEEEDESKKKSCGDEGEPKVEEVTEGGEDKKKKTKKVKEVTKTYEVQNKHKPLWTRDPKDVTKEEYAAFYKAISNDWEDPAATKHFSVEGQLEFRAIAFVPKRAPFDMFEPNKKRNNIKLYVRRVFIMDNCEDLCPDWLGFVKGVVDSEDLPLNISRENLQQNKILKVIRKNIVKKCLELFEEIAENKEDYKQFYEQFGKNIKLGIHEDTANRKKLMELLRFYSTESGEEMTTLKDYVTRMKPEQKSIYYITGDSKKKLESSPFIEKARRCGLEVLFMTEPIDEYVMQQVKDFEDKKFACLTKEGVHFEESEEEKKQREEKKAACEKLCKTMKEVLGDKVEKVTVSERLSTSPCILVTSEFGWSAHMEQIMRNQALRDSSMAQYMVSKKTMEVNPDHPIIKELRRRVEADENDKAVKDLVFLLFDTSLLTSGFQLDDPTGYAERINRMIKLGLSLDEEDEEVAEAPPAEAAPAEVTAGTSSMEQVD
Compound,LbHsp90 Inhibition (%),inhibition at 50 µM [%]
"CC1=C(O)C(=O)C=C2C1=CC=C1[C@@]2(C)CC[C@@]2(C)[C@@H]3C[C@](C)(C(=O)O)CC[C@]3(C)CC[C@]12C [CE, celastrol]",28.9 ± 5.4,30
"CC1=C(O)C(=O)C=C2C1=CC=C1[C@@]2(C)CC[C@@]2(C)[C@@H]3C[C@](C)(C(=O)NCCN4CCCC4)CC[C@]3(C)CC[C@]12C [compound 3, (2R,4aS,6aS,12bR,14aS,14bR)-10-hydroxy-2,4a,6a,9,12b,14a-hexamethyl-11-oxo-N-(2-(pyrrolidin-1-yl)ethyl)-1,2,3,4,4a,5,6,6a,11,12b,13,14,14a,14b-tetradecahydropicene-2-carboxamide]",97.8 ± 1.2,95
